Results from patent US8741932B2, “Imidazopyridine derivatives” (Piramal Enterprises Limited, priority 2009, dated 2014).

System: IL-6
Assay: Human monocyte assay, LPS-stimulated IL-6
Assay type: cell-based
Conditions: human monocytes, 1 μg/ml LPS, 5 hours
Method: The assay was designed as in the reference, Physiol.
Peripheral blood mononuclear cells (hPBMC) were harvested from human blood and suspended in RPMI 1640 culture medium containing 10% FCS, 100 U/mL penicillin and […] streptomycin (assay medium). Monocytes in the hPBMCs were counted using a Coulter Counter following which the cells were resuspended at 2×10^5 monocytes/mL. A cell suspension containing 2×10^4 monocytes was aliquoted per well of a 96-well plate. Subsequently, the hPBMCs were incubated for 4-5 hours at 37° C., 5% CO2 (During the incubation, the monocytes adhered to the bottom of 96-well plastic culture plate). Following the incubation, the non-adherent lymphocytes were washed with assay medium and the adherent monocytes re-fed with assay medium. After a 48-hour incubation period (37° C., 5% CO2), monocytes were pretreated with various concentrations of representative compounds of present invention (refer to table 6 and 7) (prepared in DMSO) or vehicle (0.5% DMSO) for 30 minutes and stimulated with 1 μg/ml LPS (Escherchia coli 0111:B4, Sigma Chemical Co., St. Louis, Mo.). The incubation was continued for 5 hours at 37° C., 5% CO2. Supernatants were harvested, assayed for IL-6 and TNF-α by ELISA as described by the manufacturer (BD Biosciences, USA). Dexamethasone (10 μM) was used as standard for this assay. […] Biological results for both IL-6 and TNFα are indicated in Table 6 and Table 7 respectively.

SMILES: COC(=O)c1ccc(S(=O)(=O)N(C)/N=C/c2cnc3ccc(-c4cccnc4)cn23)o1 [Example 73, (E)-Methyl 5-(1-methyl-2-((6-(pyridin-3-yl)imidazo[1,2-a]pyridin-3-yl)methylene) hydrazinylsulfonyl) furan-2-carboxylate]
- IC50: ≥ 5 µM

SMILES: CN(/N=C/c1cnc2ccc(-c3cccnc3)cn12)S(=O)(=O)c1ccc(Cl)c([N+](=O)[O-])c1 [Example 74, (E)-4-chloro-N-methyl-3-nitro-N′-((6-(pyridin-3-yl)imidazo[1,2-a]pyridin-3-yl)methylene) benzenesulfonohydrazide]
- IC50 (Monocyte): 0.001 to 5 µM

SMILES: Cc1ccc(F)cc1S(=O)(=O)N(C)/N=C/c1cnc2ccc(-c3cccnc3F)cn12 [Example 87, (E)-5-Fluoro-N′-((6-(2-fluoropyridin-3-yl)imidazo[1,2-a]pyridin-3-yl)methylene)-N,2-dimethylbenzenesulfonohydrazide]
- IC50 (Monocyte): 0.001 to 5 µM

SMILES: Cc1cc(-c2cccnc2)cn2c(/C=N/N(C)S(=O)(=O)c3cc(F)cc(F)c3)cnc12 [Example 101]
- IC50: 0.001 to 5 µM

SMILES: Cc1cc(-c2cccnc2)cn2c(/C=N/N(C)S(=O)(=O)c3ccccc3C#N)cnc12 [Example 104, (E)-2-cyano-N-methyl-N′-((8-methyl-6-(pyridin-3-yl)imidazo[1,2-a]pyridin-3-yl)methylene)benzenesulfonohydrazide]
- IC50 (Monocyte): ≥ 5 µM

SMILES: Cc1cc(-c2cccnc2)cn2c(/C=N/N(C)S(=O)(=O)c3cccc(C#N)c3)cnc12 [Example 106, (E)-3-cyano-N-methyl-N′-((8-methyl-6-(pyridin-3-yl)imidazo[1,2-a]pyridin-3-yl)methylene)benzenesulfonohydrazide]
- IC50 (Monocyte): ≥ 5 µM

SMILES: Cc1cc(S(=O)(=O)N(C)/N=C/c2cnc3c(C)cc(-c4cccnc4)cn23)ccc1Br [Example 107, (E)-4-Bromo-N,3-dimethyl-N′-((8-methyl-6-(pyridin-3-yl)imidazo[1,2-a]pyridin-3-yl)methylene)benzenesulfonohydrazide]
- IC50 (Monocyte): 0.001 to 5 µM

SMILES: Cc1cc(-c2cccnc2)cn2c(/C=N/N(C)S(=O)(=O)c3cccc([N+](=O)[O-])c3)cnc12 [Example 109, (E)-N-methyl-N′-((8-methyl-6-(pyridin-3-yl)imidazo[1,2-a]pyridin-3-yl)methylene)-3-nitrobenzenesulfonohydrazide]
- IC50 (Monocyte): ≥ 5 µM

SMILES: Cc1cc(-c2cccnc2)cn2c(/C=N/N(C)S(=O)(=O)c3cccc(Cl)c3)cnc12 [Example 110, (E)-3-Chloro-N-methyl-N′-((8-methyl-6-(pyridin-3-yl)imidazo[1,2-a]pyridin-3-yl)methylene)benzenesulfonohydrazide]
- IC50 (Monocyte): ≥ 5 µM

SMILES: Cc1cc(-c2cccnc2)cn2c(/C=N/N(C)S(=O)(=O)c3c(F)cc(F)cc3Br)cnc12 [Example 112]
- IC50: ≥ 5 µM

SMILES: Cc1cc(-c2cccnc2)cn2c(/C=N/N(C)S(=O)(=O)c3ccc(Cl)c([N+](=O)[O-])c3)cnc12 [Example 113, (E)-4-Chloro-N-methyl-N′-((8-methyl-6-(pyridin-3-yl)imidazo[1,2-a]pyridin-3-yl)methylene)-3-nitrobenzenesulfonohydrazide]
- IC50 (Monocyte): 0.001 to 5 µM

SMILES: Cc1cc(-c2cccnc2)cn2c(/C=N/N(C)S(=O)(=O)c3ccc(F)cc3Br)cnc12 [Example 114, (E)-2-Bromo-4-fluoro-N-methyl-N′-((8-methyl-6-(pyridin-3-yl)imidazo[1,2-a]pyridin-3-yl)methylene)benzenesulfonohydrazide]
- IC50 (Monocyte): ≥ 5 µM

SMILES: Cc1cc2ncc(C=NN(C)S(=O)(=O)c3ccccc3C#N)n2cc1-c1cccnc1 [Example 117, 2-Cyano-N-methyl-N′-((7-methyl-6-(pyridin-3-yl)imidazo[1,2-a]pyridin-3-yl)methylene) benzenesulfonohydrazide]
- IC50 (Monocyte): ≥ 5 µM

SMILES: Cc1cc2ncc(C=NN(C)S(=O)(=O)c3cc(F)ccc3C)n2cc1-c1cccnc1 [Example 118, 5-Fluoro-N, 2-dimethyl-N′-((7-methyl-6-(pyridin-3-yl)imidazo[1,2-a]pyridin-3-yl)methylene) benzenesulfonohydrazide]
- IC50 (Monocyte): ≥ 5 µM

SMILES: Cc1cccc(S(=O)(=O)N(C)/N=C/c2cnc3ccc(-c4cccnc4)c(C)n23)c1 [Example 127, (E)-N,3-dimethyl-N′-((5-methyl-6-(pyridin-3-yl)imidazo[1,2-a]pyridin-3-yl)methylene)benzenesulfonohydrazide]
- IC50 (Monocyte): ≥ 5 µM

SMILES: Cc1ccc(-c2ccc3ncc(/C=N/N(C)S(=O)(=O)c4cc(F)ccc4C)n3c2)cn1 [Example 128, (E)-5-fluoro-N,2-dimethyl-N′-((6-(6-methylpyridin-3-yl)imidazo[1,2-a]pyridin-3-yl)methylene)benzenesulfonohydrazide]
- IC50 (Monocyte): 0.001 to 5 µM

SMILES: Cc1ccc(-c2ccc3ncc(/C=N/N(C)S(=O)(=O)c4ccccc4OC(F)(F)F)n3c2)cn1 [Example 129, (E)-N-methyl-N′-((6-(6-methylpyridin-3-yl)imidazo[1,2-a]pyridin-3-yl)methylene)-2-(trifluoromethoxy)benzenesulfonohydrazide]
- IC50 (Monocyte): ≥ 5 µM

SMILES: COc1ccc(F)cc1S(=O)(=O)N(C)/N=C/c1cnc2ccc(-c3ccc(C)nc3)cn12 [Example 130, (E)-5-Fluoro-2-methoxy-N-methyl-N′-((6-(6-methylpyridin-3-yl)imidazo[1,2-a]pyridin-3-yl)methylene)benzenesulfonohydrazide]
- IC50 (Monocyte): 0.001 to 5 µM

SMILES: Cc1ccc(-c2ccc3ncc(/C=N/N(C)S(=O)(=O)c4ccccc4C)n3c2)cn1 [Example 131, (E)-N,2-dimethyl-N′-((6-(6-methylpyridin-3-yl)imidazo[1,2-a]pyridin-3-yl)methylene)benzenesulfonohydrazide]
- IC50 (Monocyte): ≥ 5 µM

SMILES: Cc1ccc(F)cc1S(=O)(=O)N(C)/N=C/c1cnc2ccc(-c3cnc(F)c(C)c3)cn12 [Example 134, (E)-5-Fluoro-N′-((6-(6-fluoro-5-methylpyridin-3-yl)imidazo[1,2-a]pyridin-3-yl)methylene)-N,2-dimethylbenzenesulfonohydrazide]
- IC50 (Monocyte): 0.001 to 5 µM

SMILES: Cc1ccc(F)cc1S(=O)(=O)N(C)/N=C/c1cnc2ccc(-c3ccc(Cl)nc3)cn12 [Example 135, (E)-N′-((6-(6-Chloropyridins-3-yl)imidazo[1,2-a]pyridin-3-yl)methylene)-5-fluoro-N,2-dimethylbenzenesulfonohydrazide]
- IC50: 0.001 to 5 µM

SMILES: COc1ccc(-c2ccc3ncc(/C=N/N(C)S(=O)(=O)c4cc(F)ccc4C)n3c2)cn1 [Example 137, (E)-5-fluoro-N′-((6-(6-methoxypyridin-3-yl)imidazo[1,2-a]pyridin-3-yl)methylene)-N,2-dimethylbenzenesulfonohydrazide]
- IC50 (Monocyte): ≥ 5 µM

SMILES: COc1ncc(-c2ccc3ncc(/C=N/N(C)S(=O)(=O)c4cc(F)ccc4C)n3c2)cn1 [Example 138, (E)-5-Fluoro-N-((6-(2-methoxypyrimidin-5-yl)imidazo[1,2-a]pyridine-3-yl)methylene)-N, 2-dimethylbenzenesulfonohydrazide]
- IC50: ≥ 5 µM

SMILES: Cc1ccc(F)cc1S(=O)(=O)N(C)/N=C/c1cnc2ccc(-c3cncc(C(F)(F)F)c3)cn12 [Example 139, (E)-5-fluoro-N, 2-dimethyl-N′-((6-(5-(trifluoromethyl)pyridin-3-yl)imidazo[1,2-a]pyridin-3-yl)methylene) benzenesulfonohydrazide]
- IC50 (Monocyte): ≥ 5 µM

SMILES: CN(/N=C/c1cnc2ccc(-c3cccnc3)cn12)C(=O)NCc1ccccc1 [Example 141, (E)-N-benzyl-1-methyl-2-((6-(pyridin-3-yl)imidazo[1,2-a]pyridin-3-yl)methylene)hydrazinecarboxamide]
- IC50 (Monocyte): 0.001 to 5 µM
